In patent US6977254B2, “Hydroxy cyclohexenyl phenyl carboxamides tocolytic oxytocin receptor antagonists” (Wyeth, priority 2001, dated 2005):

biological target: T1, human oxytocin receptor (Homo sapiens, UniProt P30559); assay: Oxytocin binding in CHO cell membranes expressing human oxytocin receptors ([3H]oxytocin radioligand); conditions: 100 nM, value without parentheses
T1 construct: host or cells: CHO cells, stably transfected (pcDNA3.1 vector); membranes
T1 sequence (P30559 1-389): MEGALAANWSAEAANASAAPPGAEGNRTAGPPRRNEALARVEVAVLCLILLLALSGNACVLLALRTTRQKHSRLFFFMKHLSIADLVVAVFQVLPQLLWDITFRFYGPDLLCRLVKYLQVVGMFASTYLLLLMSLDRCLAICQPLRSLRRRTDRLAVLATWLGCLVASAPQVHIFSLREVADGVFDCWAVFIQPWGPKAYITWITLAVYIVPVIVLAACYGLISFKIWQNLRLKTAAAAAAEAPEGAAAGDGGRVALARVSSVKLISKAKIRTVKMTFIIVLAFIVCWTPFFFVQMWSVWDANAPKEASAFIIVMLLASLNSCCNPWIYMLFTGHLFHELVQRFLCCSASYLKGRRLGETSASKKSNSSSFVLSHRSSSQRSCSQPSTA
Description: Oxytocin binding in Chinese Hamster Ovary cell membranes expressing human oxytocin receptors
Chinese Hamster Ovary (CHO) cells stably transfected with the human oxytocin (cf. T. Kimura et al., U.S. Pat. No. 5,466,584 (1995) to Rohto Pharmaceutical Co. Ltd., Osaka, Japan) were obtained from Dr. M. Thibonnier, Case Western Reserve University School of Medicine, Cleveland, Ohio.
A. Passaging and Amplification of Cells:
CHO cells transfected with the human oxytocin receptors obtained from M. Thibonnier (pcDNA3.1 vector) are allowed to grow to confluency (approx. >90%) in T-150 flasks under sterile conditions, in a cell culture medium of F-12 Nutrient Mixture (HAM) with L-glutamine (Gibco Cat. #11765-054) containing 15 mM HEPES (Gibco Cat. #15630-080), 1% antibiotic/antimycotic (add 5 mL 100×, Gibco Cat. #15240-062 per 500 mL F-12), 400 μg/mL of Geneticin (add 4 mL of 50 mg/mL per 500 mL F-12) and 10% Fetal Bovine Serum (Qualified, heat inactivated, Gibco Cat. #16140-063). The medium is removed by aspiration and the cells are washed with 10 mL of Hank's Balanced Salt solution (Gibco Cat. #14175-095). The salt solution is removed by aspiration and the cells trypsinized with 5 mL of trypsin-EDTA (0.05% trypsin, 0.53 mM EDTA-4Na, Gibco Cat. #25300-070) for 1 min The trypsin is removed by aspiration and the cells dislodged by tapping. Cell Culture medium (e.g. 30 mL for 1:30 split) is immediately added and mixed well to inactivate trypsin. 1 mL of detached cells is added to new culture flasks containing fresh Cell Culture medium (e.g. into 25 mL per T-150 flask), and mixed gently. The cells are incubated at 37° C. in 5% CO2. The medium is changed at 3 to 4 days interval (or as appropriate). The cells grow to confluency (approx. >75%-95%) within 7-8 days. All steps are done under sterile conditions.
The cells are washed twice gently with Hank's Balanced Salt solution (eg, use 10 mL per T-150 flask). The excess is removed and the cells bathed for 15-30 min. in an enzyme-free Cell Dissociation Buffer (eg, use 8 mL Hank's Based, Gibco Cat. #13150-016 per T-150 flask) until cells are loosened. The contents are transferred to centrifuge tubes (50 mL size) kept in ice bath. All subsequent steps are done at 4° C. The tubes are centrifuged at 300×g for 15 min (1380 rpm on SORVAL, Model RT6000D, using rotor for 50 mL tubes). The supernatant is discarded and the cells suspended in homogenizing buffer (10 mM Tris-HCl containing 0.25 M sucrose and 1 mM EDTA, pH 7.4) ensuring that the volume of the buffer is about ten times the volume of the cell pellet. The cells are pooled into a centrifuge tube (50 mL) and homogenized with Polytron at setting 6 for 10 sec. The homogenate is transferred into a Potter-Elvjehm homogenizer and homogenized with 3 strokes. The homogenate is centrifuged at 1500×g for 10 min at 4° C. (3100 rpm using SORVAL, model RT6000D, using rotor for 50 mL tubes). The pellet is discarded. The supernatant is centrifuged at 100,000×g for 60 min. at 4° C. (Beckman L8-80M ultracentrifuge; spin at 37,500 rpm with rotor type 70 Ti for 50 mL tubes; 38,000 rpm with type 80Ti for 15 mL tubes; or 35,800 rpm with rotor type 45Ti). The supernantant is discarded and the pellet suspended in 3 to 4 mL of Tris buffer (50 mM TRIS-HCl, pH 7.4). The protein content is estimated by the Bradford or Lowry method. The volume of the membrane suspension is adjusted with the membrane buffer (50 mM Tris-HCl containing 0.1% BSA and 0.1 mM PMSF) to give 3.0 mg/mL (or as appropriate) of protein. The membranes are aliquoted and stored at −70° C.
C. Radioligand Binding Assay:
In wells of a 96-well format microtiter plate, is added 90, 110 or 130 μL (to make up a final volume of 200 μL) of assay buffer containing 50 mM of Tris-HCl (pH 7.4), […], 1 mg % aprotinin, 1 mg % leupeptin, 2 mg % 1,10-phenanthroline, 10 mg % trypsin inhibitor, and 0.1 mM PMSF. The inhibitors are added on the day of the experiment. […]

OT % inhibition @ 100 nM [%]	Compound
98	Cc1cc(C(=O)N2Cc3ccc(C(=O)N(CCO)CCO)n3Cc3ccccc32)ccc1C1=CCCc2ccccc21 [Example 16, {10-[4-(3,4-Dihydro-naphthalen-1-yl)-3-methyl-benzoyl]-10,11-dihydro-5H-pyrrolo[2,1-c][1,4]benzodiazepin-3-yl}-3-carboxylic acid bis-(2-hydroxy-ethyl)-amide]
54	Cc1cc(C(=O)N2Cc3ccc(C(=O)N[C@@H](Cc4ccc(O)cc4)C(=O)O)n3Cc3ccccc32)ccc1C1=CCCCC1 [Example 10]
10	Cc1cc(C(=O)N2Cc3ccc(C(=O)C(Cl)(Cl)Cl)n3Cc3ccccc32)ccc1C1=CCCCC1 [Example 5D, 2,2,2-Trichloro-1-[10-(4-cyclohex-1-en-1-yl-3-methyl-benzoyl)-10,11-dihydro-5H-pyrrolo[2,1-c][1,4]benzodiazepin-3-yl]-methanone]
88	Cc1cc(C(=O)N2Cc3ccc(C(=O)N4CCN(CCO)CC4)n3Cc3ccccc32)ccc1C1=CCCCC1 [Example 17, {10-[4-(1-Cyclohex-1-en-1-yl)-3-methylbenzoyl]-10,11-dihydro-5H-pyrrolo[2,1-c][1,4]benzodiazepin-3-yl}[4-(2-hydroxyethyl)-1-piperazinyl]methanone]

same assay, conditions: 100 nM, value without parentheses, read-out: OT % inhibition @ 100 nM

Compound	inhibition at 0.1 µM [%]
COc1cc(C2=CCCCC2)c(Cl)cc1C(=O)N1Cc2ccc(C(=O)O)n2Cc2ccccc21 [Example 1G, 10-(5-Chloro-4-cyclohex-1-en-1-yl-2-methoxybenzoyl)-10,11-dihydro-5H-pyrrolo[2,1-c][1,4]benzodiazepine-3-carboxylic acid]	21
Cc1cc(C(=O)N2Cc3ccc(C(=O)O)n3Cc3ccccc32)ccc1C1=CCCc2ccccc21 [Example 15B, 10-[4-(3,4-Dihydro-naphthalen-1-yl)-3-methyl-benzoyl]-10,11-dihydro-5H-pyrrolo[2,1-c][1,4]benzodiazepine-3-carboxylic acid]	19

Next, values leading:

inhibition at 0.1 µM [%]	Compound
26	Cc1cc(C(=O)N2Cc3ccc(C(=O)O)n3Cc3ccccc32)ccc1C1=CCCCC1 [Example 5E, 10-(4-Cyclohex-1-en-1-yl-3-methyl-benzoyl)-10,11-dihydro-5H-pyrrolo[2,1-c][1,4]benzodiazepine-3-carboxylic acid]
23	CCOC(=O)[C@H](Cc1ccc(O)cc1)NC(=O)c1ccc2n1Cc1ccccc1N(C(=O)c1ccc(C3=CCCCC3)c(C)c1)C2 [Example 9, (2S)-2-{[10-(4-Cyclohex-1-en-1-yl-3-methyl-benzoyl)-10,11-dihydro-5H-pyrrolo[2,1-c][1,4]benzodiazepine-3-carbonyl]-amino}-3-(4-hydroxy-phenyl)-propionic acid ethyl ester]
63	Cc1cc(C(=O)N2Cc3ccc(C(=O)N[C@@H](CO)C(=O)O)n3Cc3ccccc32)ccc1C1=CCCCC1 [Example 13, (2S)-2-{[10-(4-Cyclohex-1-en-1-yl-3-methyl-benzoyl)-10,11-dihydro-5H-pyrrolo[2,1-c][1,4]benzodiazepine-3-carbonyl]-amino}-3-hydroxy-propionic acid]
50	Cc1cc(C(=O)N2Cc3ccc(C(=O)N[C@H](CO)C(=O)O)n3Cc3ccccc32)ccc1C1=CCCCC1 [Example 14, (2R)-2-{[10-(4-Cyclohex-1-en-1-yl-3-methyl-benzoyl)-10,11-dihydro-5H-pyrrolo[2,1-c][1,4]benzodiazepine-3-carbonyl]-amino}-3-hydroxy-propionic acid]

same assay, conditions: value in parentheses, read-out: OT (IC50)

Compound	IC50 [nM]
COc1cc(C2=CCCCC2)c(Cl)cc1C(=O)N1Cc2ccc(C(=O)N(C)C[C@H](O)[C@@H](O)[C@H](O)[C@H](O)CO)n2Cc2ccccc21 [Example 1, 1-[[[10-[5-Chloro-4-(1-cyclohex-1-en-1-yl)-2-methoxybenzoyl]-10,11-dihydro-5H-pyrrolo[2,1-c][1,4]benzodiazepin-3-yl]carbonyl]methylamino]-1-deoxy-D-glucitol]	0.98
Cc1cc(C(=O)N2Cc3ccc(C(=O)N(C)C[C@H](O)[C@H]4OC(=O)O[C@@H]4[C@H](O)CO)n3Cc3ccccc32)ccc1C1=CCCCC1 [Example 6, 10-(4-Cyclohex-1-en-1-yl-3-methylbenzoyl)-N-((2S)-2-{(4R,5R)-5-[(1R)-1,2-dihydroxyethyl]-2-oxo-1,3-dioxolan-4-yl}-2-hydroxyethyl)-N-methyl-10,11-dihydro-5H-pyrrolo[2,1-c][1,4]benzodiazepine-3-carboxamide]	0.96
Cc1cc(C(=O)N2Cc3ccc(C(=O)N(C)C[C@H](O)[C@@H](O)[C@H](O)[C@H](O)CO)n3Cc3ccccc32)ccc1C1=CCCc2ccccc21 [Example 15]	3.19
Cc1cc(C(=O)N2Cc3ccc(C(=O)N(C)C[C@H](O)[C@@H](O)[C@H](O)[C@H](O)CO)n3Cc3ccccc32)ccc1C1=CCCCC1 [Example 5]	2.15
COC[C@@H](OC)[C@@H](OC)[C@H](OC)[C@H](CN(C)C(=O)c1ccc2n1Cc1ccccc1N(C(=O)c1cc(Cl)c(C3=CCCCC3)cc1OC)C2)OC [Example 2, 10-(5-Chloro-4-cyclohex-1-en-1-yl-2-methoxybenzoyl)-N-methyl-N-[(2S,3R,4R,5R)-2,3,4,5,6-pentamethoxyhexyl]-10,11-dihydro-5H-pyrrolo[2,1-c][1,4]benzodiazepine-3-carboxamide]	19.6

Now from value to compound:

IC50 [nM]	Compound
76.2	COC(=O)[C@H](CO)NC(=O)c1ccc2n1Cc1ccccc1N(C(=O)c1ccc(C3=CCCCC3)c(C)c1)C2 [Example 11, (2S)-2-{[10-(4-Cyclohex-1-en-1-yl-3-methyl-benzoyl)-10,11-dihydro-5H-pyrrolo[2,1-c][1,4]benzodiazepine-3-carbonyl]-amino}-3-hydroxy-propionic acid methyl ester]
47.1	COC(=O)[C@@H](CO)NC(=O)c1ccc2n1Cc1ccccc1N(C(=O)c1ccc(C3=CCCCC3)c(C)c1)C2 [Example 12, (2R)-2-{[10-(4-Cyclohex-1-en-1-yl-3-methyl-benzoyl)-10,11-dihydro-5H-pyrrolo[2,1-c][1,4]benzodiazepine-3-carbonyl]-amino}-3-hydroxy-propionic acid methyl ester]

tested on: not given; assay: not given; conditions: not given

melting point [°C]	Compound
72 to 73	COc1cc(C2=CCCCC2)c(Cl)cc1C(=O)N1Cc2ccc(C(=O)N(C)C[C@H](O)[C@@H](O)[C@H](O)[C@H](O)CO)n2Cc2ccccc21 [Example 1, 1-[[[10-[5-Chloro-4-(1-cyclohex-1-en-1-yl)-2-methoxybenzoyl]-10,11-dihydro-5H-pyrrolo[2,1-c][1,4]benzodiazepin-3-yl]carbonyl]methylamino]-1-deoxy-D-glucitol]
166 to 175	Cc1cc(C(=O)N2Cc3ccc(C(=O)N(C)C[C@H](O)[C@H]4OC(=O)O[C@@H]4[C@H](O)CO)n3Cc3ccccc32)ccc1C1=CCCCC1 [Example 6, 10-(4-Cyclohex-1-en-1-yl-3-methylbenzoyl)-N-((2S)-2-{(4R,5R)-5-[(1R)-1,2-dihydroxyethyl]-2-oxo-1,3-dioxolan-4-yl}-2-hydroxyethyl)-N-methyl-10,11-dihydro-5H-pyrrolo[2,1-c][1,4]benzodiazepine-3-carboxamide]
